Tests used:
[1] = test system: MOPC 167 catalytic antibody (binding of anti-idiotype antibody 4G4); assay: Competitive ELISA using the free transition state analog: binding of anti-Id 4G4 to MOPC 167; design: species or system mouse; conditions: 10 mM TS analog present
Method: (§1) The first competitive ELISA uses the MOPC 167 catalytic antibody adsorbed onto microtitre plate wells. This assay measures the blocking effect of the p-nitrophenylphosphorylcholine transition state analog on the binding of anti-idiotype antibodies to MOPC 167 (FIG. 2, A versus B).
(§2) A true combining site-reactive anti-idiotype antibody will be prevented from interacting with MOPC 167 if this assay is performed in the presence of an excess of the transition state analog because that analog will preoccupy the catalytic combining site (FIG. 2, B). Since the anti-idiotype is blocked from attaching to MOPC 167 and will subsequently wash away, a reduced signal is obtained after the peroxidase-labeled, γ-specific anti-mouse IgG reagent and its substrate are added (compare FIG. 2, A, unblocked control and B, transition state analog blockade).
(§3) Binding of 4G4 and 1F1 to MOPC 167 was inhibited by 67% and 70% respectively when 10 mM p-nitrophenylphosphorylcholine TS analog was present.

[2] = test system: MOPC 167 catalytic antibody (binding of anti-idiotype antibody 1F1); assay: Competitive ELISA using the free transition state analog: binding of anti-Id 1F1 to MOPC 167; design: species or system mouse; conditions: 10 mM TS analog present
Method: as §1, §2, §3

[3] = test system: mouse myeloma catalytic antibody MOPC 167 (IgA); assay: MOPC 167 catalyzed acetylthiocholine hydrolysis (esterase activity, Ellman's reagent); type: biochemical; conditions: acetylthiocholine as substrate; analog concentration not given
Text: It was recognized that the phosphocholine moiety might serve as a transition state analog for ester hydrolysis according to the scheme shown in FIG. 5. MOPC 167 was therefore tested for esterase activity using acetylthiocholine as a substrate and Ellman's reagent (E-ss-E) for the detection of thiol production (Izadyar et al., Proceedings of the National Academy of Sciences of the United States of America 90: 8876-80 (1993)).
Analysis of the Lineweaver-Burk plot for MOPC 167 catalyzed acetylthiocholine hydrolysis (FIG. 7) gave a Michaelis constant, km =627 μM and catalytic constant, kcat =0.25 min^-1 which were close to the values measured for carbonate ester hydrolysis (Pollack et al., Science 234: 1570-1573 (1986)). However, since spontaneous hydrolysis of this substrate is low, kuncat =4×10^-5 min^-1, the kcat /kuncat =6,000 is about 10-fold greater than that recorded for MOPC 167 catalysis of the carbonate ester reaction. That rate enhancement should be increased by using idiotypic mimicry.

[4] = target: mouse myeloma catalytic antibody MOPC 167 (IgA); conditions: from Pollack et al., Science 234: 1570-1573 (1986); cited from earlier work

C[N+](C)(C)CCOP(=O)([O-])Oc1ccc([N+](=O)[O-])cc1 [p-nitrophenylphosphorylcholine]
inhibition of binding of 4G4 to MOPC 167 [1]: 67% | inhibition of binding of 1F1 to MOPC 167 [2]: 70% | blockage of esterase activity by the non-cleavable transition state analog [3]: almost completely blocked | affinity Ka [4]: ~ 10^6 M^-1

Source: patent US6140091A, “Anti-idiotype vaccines to elicit catalytic antibodies” (Boston Biomedical Research Institute, priority 1998, dated 2000)
